PMC2852583 (Biochemistry, 2010)

The compounds below were run against T1, pKSI (Δ5-3-ketosteroid isomerase from Pseudomonas putida) (Pseudomonas putida, UniProt P07445, D40N) (assay: fluorescence emission, linear combination of bound and free spectra).
T1 sequence (P07445 1-131 D40N): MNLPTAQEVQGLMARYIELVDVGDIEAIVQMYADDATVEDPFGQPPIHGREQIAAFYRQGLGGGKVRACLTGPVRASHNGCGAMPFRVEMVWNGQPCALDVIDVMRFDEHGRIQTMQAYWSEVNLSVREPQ
Format: binding

In order of rising Kd:
1. N#Cc1ccc2cc(O)ccc2c1 [6-cyano-2-naphthol]  2 ± 1 µM
2. Oc1ccc2cc(Br)ccc2c1 [6-bromo-2-naphthol]  4 ± 1 µM
3. COc1ccc2cc(O)ccc2c1 [6-methoxy-2-naphthol]  10 ± 5 µM
4. Oc1ccc2cc(O)ccc2c1 [2,6-dihydroxynaphthalene]  20 ± 6 µM
